pIC50: −log10 of the molar value.
Columns and labels:
DGKα = DGKα (Homo sapiens (Human), UniProt P23743); assay: In vitro DGKα inhibition assay (ADP-Glo); assay type: biochemical; details: first column of Table A; His-tagged human recombinant DGKα 0.1 nM, 50 μM ATP, 20 μM DLG
Experimental: (§1) The DGKα and DGKζ biochemical reactions were performed using His-tagged human recombinant enzymes (Signal Chem, DGKα, #D21-10BH; DGKζ, #D30-1OH)) and DLG (Dilauroyl-sn-glycerol) lipid substrate (Signal Chem, #D430-59). ADP-Glo assay was performed using ADP-Glo™ kinase Assay kit (Promega, #V9104). The reactions were carried out in assay buffer containing 40 mM Tris, pH 7.5, 0.1% CHAPS, 0.1% Prionex, 40 mM NaCl, 5 mM MgCl2, 1 mM CaCl2, and 1 mM DTT. DGKα reactions contained 0.1 nM DGKα, 50 μM ATP, and 20 μM DLG. And DGKζ reactions contained 0.4 nM DGKζ, 30 μM ATP, and 20 μM DLG.
(§2) For compound inhibition studies, 40 nL test compound in DMSO was added to wells of white polystyrene plates in 384-well (Greiner, #784075) or 1536-well format (Greiner, #782075). Compounds were added with top concentration of 2 mM with 11 point, 3-fold dilution series. Enzyme solution (contains 2× DGK enzyme concentration in 1× assay buffer) was added to the plate in 2 μL/well volume, followed by 2 μL/well of substrate solution (contains 2× concentration of ATP and DLG substrate in 1× assay buffer). Plates were then centrifuged for 1 min at 1200 RPM and sealed or lidded. For 4 μL reaction volume, test compounds were therefore diluted 100× to final top concentration of 20 μM. After 90 minute incubation, reactions were quenched by addition of 2 μL/well Promega ADP-Glo Reagent, followed by centrifugation and lidding. After 60 min incubation, 2 μL/well Promega Kinase Detection Reagent was added, plates centrifuged, and incubated for 30 min. Plates were then read using Luminescence method on BMG PHERAstar FSX plate reader. Percent inhibition was calculated and IC50s were determined using 4-parameter fit in Genedata Screener. Labcyte Echo acoustic dispenser was used for compound addition, and Formulatrix Tempest liquid handler was used for all reagent dispenses.

DGKζ = DGKζ (Homo sapiens (Human), UniProt Q13574); assay: In vitro DGKζ inhibition assay (ADP-Glo); assay type: biochemical; details: second column of Table A, head printed DGKα, presumably DGKζ; His-tagged human recombinant DGKζ 0.4 nM, 30 μM ATP, 20 μM DLG
Sequence of DGKζ (Q13574 whole entry): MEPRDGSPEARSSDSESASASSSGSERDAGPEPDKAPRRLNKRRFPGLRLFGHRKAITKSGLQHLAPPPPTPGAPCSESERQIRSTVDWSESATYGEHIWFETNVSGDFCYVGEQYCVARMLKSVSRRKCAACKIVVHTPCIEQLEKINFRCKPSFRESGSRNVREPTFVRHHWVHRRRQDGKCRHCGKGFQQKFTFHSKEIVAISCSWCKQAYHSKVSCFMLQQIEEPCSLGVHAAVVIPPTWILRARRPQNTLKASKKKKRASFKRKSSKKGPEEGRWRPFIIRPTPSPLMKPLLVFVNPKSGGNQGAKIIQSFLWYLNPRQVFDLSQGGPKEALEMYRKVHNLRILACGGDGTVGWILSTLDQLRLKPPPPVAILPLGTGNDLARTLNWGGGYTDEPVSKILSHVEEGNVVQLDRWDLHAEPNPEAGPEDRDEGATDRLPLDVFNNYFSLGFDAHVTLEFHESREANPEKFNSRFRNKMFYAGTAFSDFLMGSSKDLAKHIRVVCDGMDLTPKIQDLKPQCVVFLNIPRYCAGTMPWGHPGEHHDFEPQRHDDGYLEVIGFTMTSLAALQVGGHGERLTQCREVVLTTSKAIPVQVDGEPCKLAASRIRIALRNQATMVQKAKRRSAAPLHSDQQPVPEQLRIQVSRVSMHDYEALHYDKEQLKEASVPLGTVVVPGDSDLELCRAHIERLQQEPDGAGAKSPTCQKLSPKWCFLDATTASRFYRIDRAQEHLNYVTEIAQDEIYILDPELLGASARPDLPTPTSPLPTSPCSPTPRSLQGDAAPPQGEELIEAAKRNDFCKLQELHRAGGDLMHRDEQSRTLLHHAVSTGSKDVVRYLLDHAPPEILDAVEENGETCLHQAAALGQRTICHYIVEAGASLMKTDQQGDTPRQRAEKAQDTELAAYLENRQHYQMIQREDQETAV
Experimental: as §1, §2

Sequence of DGKα (P23743 whole entry): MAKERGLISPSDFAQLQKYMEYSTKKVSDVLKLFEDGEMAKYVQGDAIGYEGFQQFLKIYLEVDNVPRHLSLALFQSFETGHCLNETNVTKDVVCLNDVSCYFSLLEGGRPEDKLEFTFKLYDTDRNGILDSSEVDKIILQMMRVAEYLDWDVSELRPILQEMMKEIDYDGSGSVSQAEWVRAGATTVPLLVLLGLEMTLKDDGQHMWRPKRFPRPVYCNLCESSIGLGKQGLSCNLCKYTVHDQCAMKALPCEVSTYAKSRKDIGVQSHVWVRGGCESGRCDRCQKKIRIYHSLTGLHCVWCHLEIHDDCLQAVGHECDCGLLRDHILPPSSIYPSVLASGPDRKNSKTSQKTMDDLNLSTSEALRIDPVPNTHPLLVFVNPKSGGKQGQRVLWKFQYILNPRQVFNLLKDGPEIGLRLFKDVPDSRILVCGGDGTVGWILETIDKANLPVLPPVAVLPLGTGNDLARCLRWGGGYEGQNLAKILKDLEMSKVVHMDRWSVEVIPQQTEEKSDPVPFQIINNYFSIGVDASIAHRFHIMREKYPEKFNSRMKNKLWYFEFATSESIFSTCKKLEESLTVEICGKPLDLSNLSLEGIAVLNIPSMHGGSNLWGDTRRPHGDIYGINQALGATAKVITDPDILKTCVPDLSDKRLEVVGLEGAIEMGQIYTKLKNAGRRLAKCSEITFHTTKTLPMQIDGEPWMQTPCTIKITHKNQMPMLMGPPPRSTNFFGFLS

Compound | pIC50 (DGKα) | pIC50 (DGKζ)
Cc1nc2c(N3C[C@@H](C)N(C(c4ccc(C(F)(F)F)cc4)C4CC(F)(F)C4)C[C@@H]3C)nc(=O)[nH]c2n1C[C@@H]1CCCO1 (single isomer, unassigned) [Example 14] | ≥ 8.00 | ≥ 7.00
Cc1nc2c(N3C[C@@H](C)N(C(c4ccc(C(F)(F)F)cc4)C4CC(F)(F)C4)C[C@@H]3C)nc(=O)n(C)c2n1C[C@@H]1CCCO1 (single isomer, unassigned) [Example 15] | ≥ 8.00 | ≥ 8.00
CC(C)CC(c1ccc(Cl)cc1)N1C[C@H](C)N(c2nc(=O)n(C)c3c2nnn3C[C@@H]2CCCO2)C[C@H]1C (single isomer, unassigned) [Example 17] | ≥ 8.00 | ≥ 8.00
CC(C)CC(c1ccc(Cl)cc1)N1C[C@H](C)N(c2nc(=O)n(C)c3c2nnn3C[C@H]2CCCO2)C[C@H]1C (single isomer, unassigned) [Example 18] | ≥ 8.00 | ≥ 8.00
CC(C)CC(c1ccc(Cl)cc1)N1C[C@H](C)N(c2nc(=O)n(C)c3c2ncn3C[C@H]2OCC[C@@H]2O)C[C@H]1C (single isomer, unassigned) [Example 19] | ≥ 8.00 | ≥ 8.00
CC[C@@H]1CN(c2nc(=O)n(C)c3c2nnn3C[C@H]2CCCO2)[C@@H](C)CN1C(CC(C)C)c1ccc(Cl)cc1 (single isomer, unassigned) [Example 20] | ≥ 8.00 | ≥ 8.00
Cc1nc2c(N3C[C@@H](C)N(C(c4ccc(C(F)(F)F)cc4)[C@H]4CC4(F)F)C[C@@H]3C)nc(=O)n(C)c2n1C[C@@H]1CCCO1 (single isomer, unassigned) [Example 21] |  | ≥ 8.00
Cc1nc2c(N3C[C@@H](C)N(C(c4ccc(C(F)(F)F)cc4)C4CC(F)(F)C4)C[C@@H]3C)nc(=O)n(C)c2n1C[C@H]1OCC[C@@H]1O (single isomer, unassigned) [Example 34] | ≥ 8.00 | ≥ 8.00
Cc1nc2c(N3C[C@@H](C)N(C(c4ccc(C(F)(F)F)cc4)C4CC(F)(F)C4)C[C@@H]3C)nc(=O)n(C)c2n1C[C@H]1OCC[C@H]1O (single isomer, unassigned) [Example 35] | ≥ 8.00 | ≥ 8.00
Cc1nc2c(N3C[C@@H](C(F)F)N(C(c4ccc(C(F)(F)F)cc4)C4CC(F)(F)C4)C[C@@H]3C)nc(=O)n(C)c2n1C[C@@H]1CCCO1 (single isomer, unassigned) [Example 42] | ≥ 8.00 | ≥ 8.00
CC[C@@H]1CN(c2nc(=O)n(C)c3c2nc(C)n3C[C@@H]2CCCO2)[C@@H](C)CN1C(c1ccc(C(F)(F)F)c(F)c1)C(C)C (single isomer, unassigned) [Example 46] | ≥ 8.00 | ≥ 8.00
CC[C@@H]1CN(c2nc(=O)n(C)c3c2nnn3CC2(O)CCC2)[C@@H](C)CN1C(C)c1ccc(C(F)(F)F)cc1 (single isomer, unassigned) [Example 64] | ≥ 8.00 | ≥ 8.00
C[C@@H]1CN(c2nc(=O)n(C)c3c2ncn3CC2(O)CCCC2)[C@@H](C)CN1C(c1ccc(Cl)cc1)C1CC(F)(F)C1 (single isomer, unassigned) [Example 66] | ≥ 8.00 | ≥ 8.00
CC[C@@H]1CN(c2nc(=O)n(C)c3c2nc(C)n3C[C@H]2OCC[C@@H]2O)[C@@H](C)CN1C(c1ccc(C(F)(F)F)cc1)C1CC(F)(F)C1 (single isomer, unassigned) [Example 68] | ≥ 8.00 | ≥ 8.00
CCC(c1ccc(C(F)(F)F)cc1)N1C[C@H](C)N(c2nc(=O)n(C)c3c2ncn3CC2(O)CCCC2)C[C@H]1CC (single isomer, unassigned) [Example 73] | ≥ 8.00 | ≥ 8.00
Cc1nc2c(N3C[C@@H](C)N(C(c4ccc(F)cc4)c4ccc(F)cc4)C[C@@H]3C)nc(=O)[nH]c2n1C[C@@H]1CCCO1 [Example 1, 6-((2S,5R)-4-(Bis(4-fluorophenyl)methyl)-2,5-dimethylpiperazin-1-yl)-8-methyl-9-(((S)-tetrahydrofuran-2-yl)methyl)-3,9-dihydro-2H-purin-2-one] | ≥ 8.00 | ≥ 7.00
Cc1nc2c(N3C[C@@H](C)N(C(c4ccc(F)cc4)c4ccc(F)cc4)C[C@@H]3C)nc(=O)n(C)c2n1C[C@@H]1CCCO1 [Example 2, 6-((2S,5R)-4-(Bis(4-fluorophenyl)methyl)-2,5-dimethylpiperazin-1-yl)-3,8-dimethyl-9-(((S)-tetrahydrofuran-2-yl)methyl)-3,9-dihydro-2H-purin-2-one] | ≥ 8.00 | ≥ 8.00
Cc1nc2c(N3C[C@@H](CO)N(C(c4ccc(F)cc4)c4ccc(F)cc4)C[C@@H]3C)nc(=O)n(C)c2n1C[C@@H]1CCCO1 [Example 3, 6-((2S,5S)-4-(Bis(4-fluorophenyl)methyl)-5-(hydroxymethyl)-2-methylpiperazin-1-yl)-3,8-dimethyl-9-(((S)-tetrahydrofuran-2-yl)methyl)-3,9-dihydro-2H-purin-2-one] | ≥ 8.00 | ≥ 8.00
CC[C@@H]1CN(c2nc(=O)[nH]c3c2nc(C)n3C[C@@H]2CCCO2)[C@@H](C)CN1C(c1ccc(F)cc1)c1ccc(F)cc1 [Example 4, 6-((2S,5R)-4-(Bis(4-fluorophenyl)methyl)-5-ethyl-2-methylpiperazin-1-yl)-8-methyl-9-(((S)-tetrahydrofuran-2-yl)methyl)-3,9-dihydro-2H-purin-2-one] | ≥ 8.00 | ≥ 8.00
CC[C@@H]1CN(c2nc(=O)n(C)c3c2nc(C)n3C[C@@H]2CCCO2)[C@@H](C)CN1C(c1ccc(F)cc1)c1ccc(F)cc1 [Example 5, 6-((2S,5R)-4-(Bis(4-fluorophenyl)methyl)-5-ethyl-2-methylpiperazin-1-yl)-3,8-dimethyl-9-(((S)-tetrahydrofuran-2-yl)methyl)-3,9-dihydro-2H-purin-2-one] | ≥ 8.00 | ≥ 8.00
C[C@@H]1CN(c2nc(=O)n(C)c3c2ccn3C[C@@H]2CCCO2)[C@@H](C)CN1C(c1ccc(F)cc1)c1ccc(F)cc1 [Example 6, 4-((2S,5R)-4-(Bis(4-fluorophenyl)methyl)-2,5-dimethylpiperazin-1-yl)-1-methyl-7-(((S)-tetrahydrofuran-2-yl)methyl)-1,7-dihydro-2H-pyrrolo[2,3-d]pyrimidin-2-one] | ≥ 8.00 | ≥ 7.00
C[C@@H]1CN(c2nc(=O)n(C)c3c2cnn3C)[C@@H](C)CN1C(c1ccc(F)cc1)c1ccc(F)cc1 [Example 7, 4-((2S,5R)-4-(Bis(4-fluorophenyl)methyl)-2,5-dimethylpiperazin-1-yl)-1,7-dimethyl-1,7-dihydro-6H-pyrazolo[3,4-d]pyrimidin-6-one] | ≥ 8.00 | < 6.00
C[C@@H]1CN(c2nc(=O)n(C)c3c2c(F)cn3C[C@@H]2CCCO2)[C@@H](C)CN1C(c1ccc(F)cc1)c1ccc(F)cc1 [Example 8, 4-((2S,5R)-4-(Bis(4-fluorophenyl)methyl)-2,5-dimethylpiperazin-1-yl)-5-fluoro-1-methyl-7-(((S)-tetrahydrofuran-2-yl)methyl)-1,7-dihydro-2H-pyrrolo[2,3-d]pyrimidin-2-one] | ≥ 7.00 | ≥ 7.00
C[C@@H]1CN(c2nc(=O)[nH]c3c2ncn3C[C@@H]2CCCO2)[C@@H](C)CN1C(c1ccc(F)cc1)c1ccc(F)cc1 [Example 9, 6-((2S,5R)-4-(Bis(4-fluorophenyl)methyl)-2,5-dimethylpiperazin-1-yl)-9-(((S)-tetrahydrofuran-2-yl)methyl)-3,9-dihydro-2H-purin-2-one] | ≥ 7.00 | ≥ 7.00

— US20250066363A1, “Bicyclic DGK Inhibitors” (Incyte Corporation, priority 2023, published 2025)
